Data set [1] is described as follows: Critical micelle concentration by Nile red fluorescent probe assay. Type of data set: physicochemical. The note with it: pH 7.4, Nile red. As for the experimental part: To assess PA nanofiber stability, we measured the critical micelle concentration (CMC) of PAs by Nile red fluorescent probe assay (Boekhoven, A. M. Brizard, P. van Rijn, M. C. A. Stuart, R. Eelkema, J. H. van Esch, Angewandte Chemie (International ed in English) 2011, 50, 12285; herein incorporated by reference in its entirety). At pH 7.4, the supramolecular assembly of the BMP-2-binding PA was detected at above 666 nM (1.5 μg/mL), and that of the diluent PA was detected at above 1 μM (1.2 μg/mL) (FIG. 3). The binding affinities of the PAs to BMP-2 were investigated by surface plasmon resonance (SPR) using hexahistidine-tagged BMP-2 (His-BMP-2) that was immobilized on the surface via nickel (II)-nitrilotriacetic acid (Ni^2+-NTA) chelation (Knecht, D. Ricklin, A. N. Eberle, B. Ernst, J. Mol. Recognit. 2009, 22, 270; herein incorporated by reference in its entirety). As a control, the BMP-2-binding PA (1 μm, pH 7.4) was injected to a bare NTA-dextran chip, and we observed non-specific binding of the PA to the surface (FIG. 4). […]
Critical micelle concentration measurements were performed using Nile Red fluorescence spectroscopy. […] These samples were vortexed, sonicated, and were allowed to equilibrate for 24 hours before fluorescence spectra were obtained. For pH 8.5, PA samples were horn sonicated prior to the addition of Nile Red, and fluorescence spectra were obtained the same day.

Data set [2] concerns C2C12 cells. Put plainly: Cell cytotoxicity assay (LDH release, live/dead). The format is cell-based. Particulars: 10 μg/mL, 5 h, without BMP-2. On the procedure:
C2C12 cells were treated with 10 μg/mL heparin or PAs for 5 h (Day 0), and a fraction of the media was collected to measure the presence of lactate dehydrogenase (LDH), a cytosolic enzyme only released upon cell lysis, using CytoTox 96 Non-Radioactive Cytotoxicity Assay (Promega, Madison, Wis.) (n=6). In addition, the remaining cells were stained for viable and dead cells using LIVE/DEAD Viability/Cytoxocity Kit (Invitrogen, Grand Island, N.Y.).
In general terms: Release of lactate dehydrogenase indicates damage to the cell membrane.

In data set [3] the test system is C2C12 cells. The experiment in a line: Alkaline phosphatase (ALP) stain, BMP-2-induced osteoblast differentiation. Type of data set: cell-based. The note with it: 50 ng/mL BMP-2, PA or heparin 0.1-10 μg/mL, 3 days. As for the experimental part:
(§1) C2C12 pre-myoblasts were maintained and treated with BMP-2 as depicted in FIG. 5A. C2C12 cells were seeded at 2×10^4 cells/cm2 in 24-well plates in growth media (DMEM with 10% heat-inactivated FBS and 100 U/mL penicillin/streptomycin, P/S) 1 day before treatment. On the following day (Day 0), growth media was replaced with 900 μL maintenance media (growth media with 2.5% FBS) and 100 μL treatment media containing BMP-2 with heparin or PAs. Preparation of the treatment media was as follows: 2.5 μL of BMP-2 stock ([…]) was mixed with 5 μL of heparin or PA stock solutions (0.02, 0.2, or 2 mg/mL), incubated for 5 min on ice, then mixed with DMEM (100 U/mL P/S) to a final volume of 100 μL, followed by 5 min incubation on ice. For treatments with BMP-2 only, the treatment media was prepared according to the method described except without heparin or PAs. Final working concentrations were 50 ng/mL BMP-2 and a range of 0.1, 1, to 10 μg/mL heparin or PAs.
The presence of ALP was stained as a marker for osteoblast differentiation on day 3 by enzymatic labeling described by Mason and Woolston (herein incorporated by reference in its entirety). C2C12 cell layer was fixed with 4% paraformaldehyde (PFA) for 30 s, washed with PBS three times, and stained for 1 h with Naphthol AS-MX phosphate (Sigma-Aldrich, St. Louis, Mo.) and Fast Blue BB salt (Sigma-Aldrich) in 0.1M Tris-HCl at pH 8.2, followed by washing with PBS.

Data set [4] concerns C2C12 cells. The experiment in a line: Real-time PCR of osteogenic genes (Runx2, Osx, Ocn). The format is cell-based. The note with it: 50 ng/mL BMP-2, 10 μg/mL, 2 days. As for the experimental part:
C2C12 cells were treated with 50 ng/ml BMP-2 in the presence of 10 μg/mL heparin or PAs until Day 2, and the osteogenic gene expression levels were determined by real-time PCR as described by Zhao et al. (n=4, in triplicate experiments). Briefly, total RNAs were isolated from cells using TRIzol (Invitrogen) and reverse-transcribed using iScript Reverse Transcription Supermix (Bio-Rad, Des Plaines, Ill.). PCR amplification was analyzed with iQ5 Real-Time PCR Detection System (Bio-Rad) using iQ SYBR Green Supermix (Bio-Rad) and the following primers: Runx2 types II & III (Runx2), 5′-[…]-3′(SEQ ID NO:5) and 5′-CCAAAAGAAGCTTTGCTG-3′ (SEQ ID NO:6); Osterix (Osx), 5′-[…]-3′(SEQ ID NO:7) and 5′-[…]-3′(SEQ ID NO:8); Osteocalcin (Ocn), 5′-[…]-3′(SEQ ID NO:9) and 5′-[…]-3′(SEQ ID NO:10); and Glyceraldehyde-3-phosphate dehydrogenase (GAPDH), 5′-[…]-3′(SEQ ID NO:11) and 5′-[…]-3′(SEQ ID NO:12) (IDT, Coralville, Iowa). For PCR amplification, cDNA was denatured at 94° C. for 5 min, then underwent 40 repeated cycles at 94° C. for 45 s, annealing at 55° C. for 1 min, and extension at 68° C. for 1 min, followed by 79 repeated cycles at 55° C. for 30 s for generation of a melting curve. Expression values of Runx2 II, Osx, and Ocn were normalized to the respective GAPDH levels, and all treatments were normalized to control (BMP-2 only) treatment in order to represent relative fold increase.
(In general: Real-time PCR tracks product formation cycle by cycle.)

Data set [5] has as its system C2C12 cells. The experiment in a line: Alkaline phosphatase (ALP) activity assay, BMP-2-induced osteoblast differentiation. Type of data set: cell-based. Particulars: 10 μg/mL, without BMP-2, 4 days. On the procedure: as §1, with “Final working concentrations were 50 ng/mL BMP-2 and a range of 0.1, 1, to 10 μg/mL heparin or PAs.” left out
ALP activity from C2C12 cell layer was measured using QUANTI-Blue ALP substrate (InvivoGen, San Diego, Calif.). […] The plate was incubated at 37° C. for 18 h and absorbance was measured at 630 nm on SpectraMax M5 Microplate Reader (Molecular Devices, Sunnyvale, Calif.). […] The absorbance values from QUANTI-Blue ALP assay was normalized by the amount of dsDNA in each sample, and the resulting values from heparin and PA treatments were normalized to control (BMP-2 only) to represent the relative fold increase (n=3, in triplicate experiments).

Consider three molecules from patent publication US11066444B2, “BMP-2-binding peptide amphiphile nanofibers” (Northwestern University, priority 2014, dated 2021).

Where “and” joins values, the source holds several entries; their conditions need not be identical. Equal entries are not always repeated. Residues, ends and D or L forms follow the SMILES beside them. *: point of attachment. Lauroyl = CCCCCCCCCCCC(=O)*

Turning to `CCCCCCCCCCCC(=O)NCCCC[C@H](NC(=O)[C@@H](NC(=O)[C@@H](NC(=O)[C@@H](NC(=O)[C@H](C)NC(=O)[C@H](C)NC(=O)[C@H](C)NC(=O)[C@H](CCC(=O)O)NC(=O)[C@H](CCC(=O)O)NC(=O)[C@H](CCC(=O)O)NC(=O)[C@H](CO)NC(=O)CNC(=O)CNC(=O)CNC(=O)[C@H](Cc1ccc(O)cc1)NC(=O)[C@@H]1CCCN1C(=O)[C@@H](NC(=O)[C@H](Cc1c[nH]cn1)NC(=O)[C@@H]1CCCN1C(=O)[C@H](CO)NC(=O)[C@@H](N)[C@@H](C)O)C(C)C)C(C)C)C(C)C)C(C)C)C(N)=O` [BMP-2-binding PA, C12-(K)V3A3E3-SGGGYPVHPST-NH2] (H-TSPHVPYGGGSEEEAAAVVVK(Lauroyl)-NH2; N-terminus and C-terminus assumed), the “critical micelle concentration (supramolecular assembly detected at above)” value in data set [1] is “above 666 nM and > 1.5 μg/mL”. The cytotoxicity result in the data set on C2C12 cells [2] is recorded as “did not induce cytotoxicity”. For the same molecule, the “number of ALP-positive cells” value in the data set on C2C12 cells [3] is recorded as “slight increase in the number of ALP-positive cells”. Moreover, in the data set with C2C12 cells [4], the “osteoblastic differentiation by mRNA levels relative to BMP-2 alone” value was “enhanced osteoblastic differentiation”.

For the molecule `CCCCCCCCCCCCCCCC(=O)N[C@H](C(=O)N[C@H](C(=O)N[C@H](C(=O)N[C@@H](C)C(=O)N[C@@H](C)C(=O)N[C@@H](C)C(=O)N[C@@H](CCC(=O)O)C(=O)N[C@@H](CCC(=O)O)C(=O)N[C@@H](CCC(=O)O)C(=O)O)C(C)C)C(C)C)C(C)C` [diluent PA, C16-V3A3E3-COOH] (HELM PEPTIDE1{[CCCCCCCCCCCCCCCC(=O)[*:2]].V.V.V.A.A.A.E.E.E}$$$$V2.0), the “critical micelle concentration (supramolecular assembly detected at above)” value in data set [1] was “above 1 μM and > 1.2 μg/mL”. Also, in the data set with C2C12 cells [2], the cytotoxicity entry is “did not induce cytotoxicity”. For the same molecule, the “number of ALP-positive cells” value in the data set on C2C12 cells [3] is listed as “increased number of ALP-positive cells”. Besides, the “osteoblastic differentiation by mRNA levels relative to BMP-2 alone” value in the data set with C2C12 cells [4] is listed as “enhanced osteoblastic differentiation”.

For the molecule heparin sodium [reference compound], the cytotoxicity result in the data set on C2C12 cells [2] is given as “did not induce cytotoxicity”. Moreover, in the data set on C2C12 cells [3], the “number of ALP-positive cells” value is recorded as “directly proportional association of the number of ALP-positive cells with heparin concentrations up to 10 μg/mL”. Besides, in the data set on C2C12 cells [5], the “ALP expression without BMP-2” value is reported as “did not promote ALP expression”. Moreover, the “osteoblastic differentiation by mRNA levels relative to BMP-2 alone” value in the data set with C2C12 cells [4] is “enhanced osteoblastic differentiation”.
